Measured values taken from PubChem BioAssay (NCI).
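These data come from cells grown in 96-well plates and exposed to compound for 48 hours at five concentrations. Abbreviation: GI50, concentration required for 50% inhibition of growth. TGI denotes the concentration required for complete inhibition of growth.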

Key:
Assay in all cases: NCI-60 cell line screen, 48 h
CAKI-1 renal = test system: CAKI-1 renal
COLO 205 colon = test system: COLO 205 colon
OVCAR-3 ovarian = test system: OVCAR-3 ovarian
OVCAR-8 ovarian = test system: OVCAR-8 ovarian
RPMI-8226 leukemia = test system: RPMI-8226 leukemia
SK-MEL-5 melanoma = test system: SK-MEL-5 melanoma
SW-620 colon = test system: SW-620 colon
U251 CNS = test system: U251 CNS
HCT-116 colon = test system: HCT-116 colon
HOP-92 NSCLC = test system: HOP-92 NSCLC

Structure (SMILES) | TGI (CAKI-1 renal) [µM] | TGI (COLO 205 colon) [µM] | TGI (OVCAR-3 ovarian) [µM] | TGI (OVCAR-8 ovarian) [µM] | TGI (RPMI-8226 leukemia) [µM] | TGI (SK-MEL-5 melanoma) [µM] | TGI (SW-620 colon) [µM] | TGI (U251 CNS) [µM] | TGI (HCT-116 colon) [µM] | TGI (HOP-92 NSCLC) [µM] | GI50 (COLO 205 colon) [µM] | GI50 (HCT-116 colon) [µM] | GI50 (HOP-92 NSCLC) [µM] | GI50 (OVCAR-3 ovarian) [µM] | GI50 (OVCAR-8 ovarian) [µM] | GI50 (RPMI-8226 leukemia) [µM] | GI50 (SK-MEL-5 melanoma) [µM] | GI50 (SW-620 colon) [µM] | GI50 (U251 CNS) [µM] | GI50 (CAKI-1 renal) [µM]
CCC1CN2CCc3cc(OC)c(OC)cc3C2CC1CC1c2cc(OC)c(OC)cc2CCN1C(=O)CNC(=O)OC(C)(C)C (configuration not stated) | 65.1 | 12.7 | 61.7 | > 100 | 48.6 | 21 | 29.1 | > 100 | – | – | – | – | – | – | – | – | – | – | – | –
C[C@H](CSC(=O)c1ccccc1)C(=O)N1c2ccccc2C[C@H]1C(=O)O | > 100 | > 100 | > 100 | > 100 | – | > 100 | > 100 | > 100 | > 100 | – | – | – | – | – | – | – | – | – | – | –
C/C=C(/CCCCNCCCC)[Si](C)(C)C | – | 27.9 | 28.3 | 31.8 | – | 26.6 | 34.1 | 26.3 | 26.6 | 20.9 | – | – | – | – | – | – | – | – | – | –
COc1cc(Oc2c(O)c(C)c(OC)c(C(C)=O)c2O)c(C(C)=O)c(O)c1C | > 100 | > 100 | > 100 | > 100 | – | > 100 | > 100 | > 100 | > 100 | > 100 | – | – | – | – | – | – | – | – | – | –
FC(F)(F)c1ccc2nc(Nc3ccc(Cl)c(Cl)c3)c(-c3ccccc3)nc2c1 | – | > 100 | > 100 | > 100 | > 100 | – | > 100 | > 100 | > 100 | > 100 | – | – | – | – | – | – | – | – | – | –
CCCCC[C@H]1C/C=C2/C(=O)C(Cl)=C[C@@H]2C/C=C\CCCC(=O)O[C@@H](CCCCC)C/C=C2/C(=O)C(Cl)=C[C@@H]2C/C=C\CCCC(=O)O1 | – | 0.687 | 0.555 | 1.59 | 0.973 | 0.659 | 1.77 | 0.652 | 0.523 | 0.687 | 0.316 | 0.186 | 0.314 | 0.268 | 0.38 | 0.188 | 0.325 | 0.512 | 0.291 | –
C=C(C)[C@@H]1CC[C@@]2(C)[C@H]1[C@H]1CCC3[C@@]4(C)CC[C@H](O)C(C)(C)[C@@H]4CC[C@@]3(C)[C@]1(C)C[C@@H]2O (some centres not stated) | > 100 | – | > 100 | > 100 | – | 57.2 | > 100 | > 100 | > 100 | > 100 | – | – | – | – | – | – | – | – | – | –
CC(C)=CC(=O)CC(=O)C(=O)Nc1ccc(Cl)c(Cl)c1 | – | > 100 | > 100 | > 100 | > 100 | – | > 100 | > 100 | > 100 | – | – | – | – | – | – | – | – | – | – | –
CN(C)C(=O)C1CCC(=C2C(=O)OC(C)(C)OC2=O)N1C (configuration not stated) | > 100 | > 100 | > 100 | > 100 | – | > 100 | > 100 | > 100 | > 100 | > 100 | – | – | – | – | – | – | – | – | – | –
CCOC(=O)/C(C#N)=C1\N[C@H](C(=O)OCC)CO1 | > 100 | > 100 | > 100 | > 100 | > 100 | > 100 | > 100 | > 100 | > 100 | – | – | – | – | – | – | – | – | – | – | –
COC(=O)[C@]1(C)CCC[C@@]2(C)C1CCC1=C[C@@]3(C(C)C)CC[C@]12OO3 (some centres not stated) | – | 45 | > 100 | > 100 | 47 | 33.3 | > 100 | > 100 | 73 | – | – | – | – | – | – | – | – | – | – | –
COc1ccc(-c2ccc(/C=N/n3c(COc4ccc(Cl)cc4)n[nH]c3=S)o2)c([N+](=O)[O-])c1 | 22.2 | 45.2 | – | > 100 | – | – | – | 49.7 | 40.7 | 43.8 | 20.1 | 16.8 | 15.1 | – | 24.6 | – | – | – | 15.5 | 3.96
CC(=O)C1=C([O-])C(C)OC1=O.CC(=O)C1=C([O-])C(C)OC1=O.[NH-]C1CCCC[C@H]1[NH-].[Pt+4] (configuration not stated) | > 100 | > 100 | > 100 | > 100 | > 100 | > 100 | > 100 | > 100 | > 100 | – | 35.1 | 45.6 | – | > 100 | > 100 | 8.72 | 57.5 | 8.69 | > 100 | 35.9
O=[N+]([O-])c1nccn1CC1OC(n2ccnc2[N+](=O)[O-])C(O)C(O)C1O (configuration not stated) | – | > 100 | – | > 100 | > 100 | > 100 | > 100 | > 100 | > 100 | > 100 | – | – | – | – | – | – | – | – | – | –
COC(=O)C(=O)C(C(=O)C=C(C)C)C(=O)C(=O)Nc1cccc(C(C)=O)c1 (configuration not stated) | > 100 | > 100 | > 100 | > 100 | > 100 | > 100 | > 100 | > 100 | > 100 | – | – | – | – | – | – | – | – | – | – | –
CC(C)[C@@H](COC(C)(C)C)N=CN1CCc2c([nH]c3ccccc23)C1 | – | > 100 | > 100 | > 100 | > 100 | > 100 | > 100 | > 100 | > 100 | 89.6 | – | – | – | – | – | – | – | – | – | –
CCCCCCCCCCCCC(=O)[O-].CCCCCCCCCCCCC(=O)[O-].CCCCCCCCCCCCC(=O)[O-].CCCCCCCCCCCCC(=O)[O-].[Mo+2].[Mo+2] | – | 46.4 | 24.9 | 31.3 | 37 | – | 29 | 22.6 | 27.3 | 9.35 | 19.3 | 8.98 | 3.56 | 12.4 | 11.9 | 4.08 | – | 15.1 | 10.7 | –
COc1ccc2c(C(=O)O)cc3cc(OC)c(OC)cc3c2c1 | – | > 100 | > 100 | > 100 | > 100 | > 100 | > 100 | > 100 | > 100 | > 100 | – | – | – | – | – | – | – | – | – | –
CCOc1ccc(NC(=O)CC2SC(N)=NC2=O)cc1 (configuration not stated) | – | > 100 | > 100 | > 100 | > 100 | > 100 | > 100 | > 100 | > 100 | > 100 | – | – | – | – | – | – | – | – | – | –
CC[CH2][Pb]([CH2]CC)([CH2]CC)[NH]S(=O)(=O)c1ccc(C)cc1 | – | 0.0528 | 0.0625 | – | 0.131 | 0.142 | 0.345 | 0.292 | 0.179 | 0.161 | 0.0236 | 0.0452 | 0.036 | 0.024 | – | 0.0259 | 0.0555 | 0.0364 | 0.089 | –
COC(=O)C(Cc1nc2ccc(Cl)cc2[nH]c1=O)C(=O)C(=O)Nc1ccccc1[N+](=O)[O-] (configuration not stated) | > 100 | > 100 | > 100 | > 100 | > 100 | > 100 | > 100 | > 100 | > 100 | – | – | – | – | – | – | – | – | – | – | –
Cc1cc(N2CCCC2)nc(N(CCCNc2ccnc3cc(Cl)ccc23)Cc2ccc3c(c2)OCO3)n1 | – | 3 | 2.87 | 5.41 | 1.72 | 2.9 | 2.87 | 5.2 | 3.3 | 2.96 | 1.39 | 0.511 | 0.0237 | 1.06 | 1.8 | 0.322 | 1.53 | 1.21 | 1.57 | –
CC(=O)NC(CCCN(Cc1ccccc1)C(=O)N(CCCl)N=O)C(=O)NCc1ccccc1 (configuration not stated) | – | > 100 | > 100 | > 100 | > 100 | > 76.7 | > 100 | > 100 | > 100 | > 91.8 | – | – | – | – | – | – | – | – | – | –
CC(C)=CCC/C(C)=C/Cc1c(O)ccc2c1[nH]c1cc(O)c(C)cc12 | – | > 25 | 21.2 | > 25 | > 25 | > 25 | > 25 | > 25 | > 25 | > 25 | – | – | – | – | – | – | – | – | – | –
CS(=O)(=O)Nc1cc(-c2ccc3ncnc(Nc4ccc5c(cnn5Cc5ccc(F)cc5)c4)c3c2)cnc1Cl | – | 6.02 | 3.3 | > 100 | – | 2.89 | 12.8 | 11.1 | 21.7 | – | 1.96 | 2.92 | – | 1.1 | 3.02 | – | 1.52 | 2.5 | 1.41 | –
CC(=O)c1cccc(NCn2nnc3ccccc32)c1 | – | > 100 | > 100 | > 100 | > 100 | – | > 100 | > 100 | > 100 | > 100 | – | – | – | – | – | – | – | – | – | –
NCc1ccc(-n2c(-c3nonc3N)nc3cnccc32)cc1 | > 25 | > 25 | > 25 | > 25 | > 25 | > 25 | > 25 | > 25 | > 25 | – | 5.53 | 2.69 | – | 7.13 | 6.76 | > 23.2 | 9.25 | 7.1 | 8.94 | 2.27
COc1cnc2c(c1)C(=O)c1c-2n(CCCN2CCCC2)c(=O)c2cc(Cl)ccc12 | 8.18 | 8.22 | – | 12.2 | 16.3 | 9.48 | 8.09 | 7.96 | – | 12.1 | 0.161 | – | 2.2 | – | 0.813 | 5.26 | 2.54 | 0.0313 | 0.0383 | 0.034
